Experimental data as given in the NIST ThermoML archive (doi:10.1007/s10765-005-5566-6).
Numbers after ± are expanded uncertainties.

Conditions: Gas, Hot wire method

O=C=O [carbon dioxide]
Conditions | thermal conductivity [W/m/K]
298.89 K, 6100 kPa | 0.03312 ± 0.00059
299.02 K, 5760 kPa | 0.02896 ± 0.00053
299.19 K, 5400 kPa | 0.02633 ± 0.00048
299.31 K, 5035 kPa | 0.02441 ± 0.00045
299.5 K, 4555 kPa | 0.02268 ± 0.00042
299.6 K, 3980 kPa | 0.02109 ± 0.00039
299.73 K, 3285 kPa | 0.01968 ± 0.00037
299.85 K, 2555 kPa | 0.01861 ± 0.00035
300.06 K, 1702 kPa | 0.01777 ± 0.00034
300.37 K, 714 kPa | 0.01712 ± 0.00033
302.67 K, 6635 kPa | 0.037 ± 0.00066
302.77 K, 6400 kPa | 0.03309 ± 0.00059
302.8 K, 6025 kPa | 0.02905 ± 0.00053
302.86 K, 5675 kPa | 0.02694 ± 0.00049
302.92 K, 5290 kPa | 0.02471 ± 0.00045
302.97 K, 4870 kPa | 0.02339 ± 0.00043
303.08 K, 4340 kPa | 0.02178 ± 0.0004
303.22 K, 3765 kPa | 0.02053 ± 0.00038
303.51 K, 3160 kPa | 0.01961 ± 0.00037
303.81 K, 2415 kPa | 0.01872 ± 0.00035
303.99 K, 1612 kPa | 0.01795 ± 0.00034
304.21 K, 724 kPa | 0.01741 ± 0.00033
324.87 K, 7960 kPa | 0.03214 ± 0.00058
324.9 K, 7750 kPa | 0.03118 ± 0.00056
324.92 K, 7440 kPa | 0.02954 ± 0.00054
324.95 K, 5960 kPa | 0.02501 ± 0.00046
325.01 K, 6900 kPa | 0.02771 ± 0.0005
325.04 K, 6760 kPa | 0.02716 ± 0.0005
325.1 K, 5575 kPa | 0.02434 ± 0.00045
325.12 K, 6360 kPa | 0.02611 ± 0.00048
325.28 K, 5060 kPa | 0.02323 ± 0.00043
325.42 K, 4605 kPa | 0.02254 ± 0.00042
325.48 K, 4040 kPa | 0.02182 ± 0.0004
325.64 K, 3500 kPa | 0.02126 ± 0.0004
325.81 K, 2880 kPa | 0.02052 ± 0.00038
325.93 K, 2218 kPa | 0.02003 ± 0.00037
326.03 K, 1514 kPa | 0.01958 ± 0.00037
326.17 K, 684 kPa | 0.01921 ± 0.00036
326.26 K, 497 kPa | 0.0191 ± 0.00036
350.83 K, 9985 kPa | 0.03324 ± 0.0006
350.89 K, 8840 kPa | 0.03029 ± 0.00055
350.96 K, 7540 kPa | 0.02768 ± 0.0005
351.12 K, 6040 kPa | 0.02551 ± 0.00047
351.44 K, 4275 kPa | 0.02351 ± 0.00043
351.82 K, 2214 kPa | 0.02197 ± 0.0004
351.87 K, 1820 kPa | 0.02181 ± 0.0004
351.91 K, 1420 kPa | 0.02153 ± 0.0004
352.1 K, 994 kPa | 0.02141 ± 0.00039
352.23 K, 572 kPa | 0.02136 ± 0.00039
375.68 K, 14930 kPa | 0.04175 ± 0.00075
375.71 K, 13880 kPa | 0.03888 ± 0.0007
375.75 K, 12560 kPa | 0.03615 ± 0.00065
375.8 K, 11100 kPa | 0.03322 ± 0.0006
375.85 K, 9640 kPa | 0.03079 ± 0.00056
375.91 K, 8060 kPa | 0.02887 ± 0.00052
376.01 K, 6260 kPa | 0.02673 ± 0.00049
376.11 K, 4240 kPa | 0.02504 ± 0.00046
376.28 K, 2004 kPa | 0.02377 ± 0.00043
376.51 K, 1015 kPa | 0.02346 ± 0.00043
400.85 K, 15010 kPa | 0.03843 ± 0.00069
400.93 K, 13550 kPa | 0.03623 ± 0.00066
400.98 K, 11950 kPa | 0.03389 ± 0.00061
401.03 K, 10340 kPa | 0.03194 ± 0.00058
401.15 K, 8495 kPa | 0.03004 ± 0.00054
401.3 K, 6660 kPa | 0.0285 ± 0.00052
401.42 K, 4600 kPa | 0.02712 ± 0.00049
401.6 K, 2382 kPa | 0.02597 ± 0.00047
401.66 K, 1690 kPa | 0.02584 ± 0.00047
401.74 K, 975 kPa | 0.02566 ± 0.00046
427.12 K, 12000 kPa | 0.03429 ± 0.00062
427.23 K, 9898 kPa | 0.0325 ± 0.00059
427.38 K, 8240 kPa | 0.03127 ± 0.00056
427.51 K, 6160 kPa | 0.02966 ± 0.00053
427.67 K, 3970 kPa | 0.02879 ± 0.00052
427.7 K, 3020 kPa | 0.02833 ± 0.00051
427.95 K, 2050 kPa | 0.02812 ± 0.0005
428.05 K, 1040 kPa | 0.02797 ± 0.0005
